Results from publication PMC8379205, “Bioinspired caries preventive strategy via customizable pellicles of saliva-derived protein/peptide constructs” (Scientific Reports, 2021).
Like-named read-outs stand apart in the source and are kept apart here. Non-standard residues stand in square brackets, D forms with d. Residues, ends and D or L forms follow the SMILES beside them. No end group written: not given here. pS = N[C@@H](COP(=O)(O)O)C(=O)O

Assays:
[1] = system: Streptococcus mutans U159; assay type: cell-based
Method: MICs were assessed for all proteins/peptides against Streptococcus mutants (S. mutans) U159 oral bacteria to identify the lowest concentration at which no bacterial growth is observed. Planktonic bacteria were grown aerobically (10% CO2) in brain heart infusion (BHI) medium (BD BBL™ #211,059, MD, USA) overnight. […] BHI medium was used as a control. Bacteria were inoculated to a final concentration of 3.0 × 10^6 CFU/ml per well. The plates were incubated at 37 °C in a 10% CO2 atmosphere for 24 h under continuous shaking (200 rpm). Absorbance at 620 nm was measured using a microtiter plate reader (BioTek™ SynergyHT, VT, USA).

[2] = system: S. mutans U159 biofilms; assay: Crystal violet (CV) biomass assay on pellicle-coated substrates; assay type: cell-based, Streptococcus mutans; details: no sucrose (NS), 24 h biofilm; for Biovolume / biomass of biofilm (crystal violet): pellicle-coated with 200 μM for 2 h at 37 °C, OD 620 nm, compared to whole saliva; for Biofilm structure (brightfield, crystal violet-stained): polystyrene microtiter plates
Method: CV assay was performed to assess the remaining bioburden on pellicle-coated substrates with protein/peptide test groups in comparison to human whole saliva. Microtiter plates and HA discs were used as substrates to be pellicle-coated before growing biofilms. Each substrate was pellicle-coated with 50 μl of 200 μM protein/peptide candidates for 2 h at 37 °C under gentle shaking. Pooled filtered whole saliva and the vehicle were used as positive and negative controls respectively. The unbound protein/peptide/saliva were removed, the adjusted inoculum was dispensed without or with 1% sucrose supplementation and the samples were incubated as mentioned above but without agitation. Next day, the samples were rinsed and stained with 0.1% CV. After 15 min, the stain was rinsed, air dried, and photographed. All formed biofilms were structurally characterized with a bright field inverted microscope (EVOS™ xl core, MA, USA) before dissolving the satin, with 33% acetic acid, and reading at OD 620 nm.

[3] = 2-photon immobilization of fluorescently labelled proteins/peptides on human enamel; assay type: binding; details: FAM-labelled
Source text: This characterization method aimed to monitor the amount of protein/peptide molecules immobilized on enamel in pellicle-mimicking conditions to infer their binding capacity. Z-stacks for pellicle-coated enamel slices were acquired to monitor the immobilization patterns and thus, the binding capacity of fluorescently-labelled proteins/peptides. Enamel samples were ground to 0.5–0.6 mm and polished with 600 silica-grit papers using a polishing machine (Buehler, IL, USA). Samples were then ultrasonicated in a water bath for 20 min, dried and pellicle-coated with fluorescently labeled proteins/peptides as mentioned above. 2-photon images were acquired as aforementioned using 40 × NA 0.8 water immersion objective (LUMPlanFl/IR, Olympus, Japan). Solutions of the tagging molecule (FAM) and the vehicle, 0.01% acetic acid, were used to pellicle-coat the positive and negative controls respectively. The amount of immobilized fluorescent protein/peptide molecules were quantified by calibrating the emitted fluorescence signals[21]^. The mean integrated density was calculated that sums all of the pixels along the acquired z-stacks, 4 images each.

[4] = system: S. mutans U159 biofilms; assay: 2-photon 3D renderings of biofilms grown on pellicle-coated HA discs; assay type: cell-based, Streptococcus mutans; details: 24 h biofilm, cariogenic conditions (1% sucrose), 2-photon 3D volume
Source text: Z-stacks were acquired with the 2-photon microscope (Ultima IV, Prairie Technology Inc., WI, USA) for 3D structural and vitality characterization of biofilms grown on protein/peptide pellicle-coated HA discs. Non-descanned high sensitivity multi-alckali photocatode photomultiplier detectors (R3896, Hamamatsu, Japan) were used to allow visualization of multiple fluorophores located deep within the specimen. The infra-red (IR) laser (MAI TAI, Spectra-Physics, USA), tuned at 870 nm, was operated in pulsed mode using a 20 × NA1.0 water-immersion objective (XLUMPlanFLN, Olympus, Japan) with a 2 mm working distance suitable for deep imaging. Images were compiled and analyzed with FIJI software (Fiji Is Just) ImageJ, version: 2.1.0/1.53c https://imagej.net/Contributors[19].

[5] = system: S. mutans U159 biofilms; assay: Live/dead vitality assay of biofilms on pellicle coatings; assay type: cell-based, Streptococcus mutans; details: NS and WS conditions, HA discs; order Hist3 followed by Hist5, Hist1 and RR14; 3 independent times, n = 5
Method: The vitality of grown biofilms was observed alongside their biomass to determine the antimicrobial efficacy of protein/peptide pellicle-coatings against the attached bacteria in the biofilm state. All the steps are the same as mentioned above till the staining step. Working fluorescent solution was prepared by adding 3 μl of SYTO® 9 stain and 3 μl of Propidium iodide stain to 1 ml of filter-sterilized water. The staining solution was added to each sample very gently so as not to disturb the biofilm. After 20 min light-protected incubation, samples were rinsed with 0.9% NaCl and imaged with fluorescent inverted microscope (EVOS™ M5000, MA, USA) using 20 × lens. All assays were conducted 3 independent times with sample size n = 5.

[6] = planktonic S. mutans U159, BHI medium, 3.0 × 10^6 CFU/ml, twofold dilutions 0–512 μM, 37 °C, 10% CO2, 24 h, shaking 200 rpm, absorbance 620 nm

## DSpSpEEKFLRDSpSpEEKFLR [DR9-DR9, duplicated DR9 construct, domains linked synthetically]
[1]; [6]
  MIC: > 512 µM
[2]
  Biovolume / biomass of biofilm (crystal violet): highest biovolume
  Biofilm structure (brightfield, crystal violet-stained): clumps and aggregates

## D[pS][pS]EEKFLRRIGRFGYGYGPYQPVPEQPLYPQPYQPQYQQYTF [Statherin]
[1]; U159, 24 h
  MIC: > 512 µM
[3]
  Immobilization capacity on enamel: highest immobilization capacity
[2]
  Biovolume / biomass of biofilm (crystal violet): highest biovolume
  Biofilm structure (brightfield, crystal violet-stained): clumps and aggregates

## CC(C)C[C@H](NC(=O)[C@H](Cc1ccccc1)NC(=O)[C@H](CCCCN)NC(=O)[C@H](CCC(=O)O)NC(=O)[C@H](CCC(=O)O)NC(=O)[C@H](COP(=O)(O)O)NC(=O)[C@H](COP(=O)(O)O)NC(=O)[C@@H](N)CC(=O)O)C(=O)N[C@@H](CCCNC(=N)N)C(=O)O [DR9] (H-D[pS][pS]EEKFLR-OH; N-terminus and C-terminus assumed)
[4]
  Biofilm thickness: 60–65 μm
[1]; U159, 24 h
  MIC: > 512 µM
[2]
  Biovolume / biomass of biofilm (crystal violet): considerably reduced biomass build-up

## N=C(N)NCCC[C@H](NC(=O)[C@H](Cc1ccc(O)cc1)NC(=O)CNC(=O)[C@H](CCCNC(=N)N)NC(=O)[C@H](Cc1c[nH]cn1)NC(=O)[C@H](CO)NC(=O)[C@H](Cc1c[nH]cn1)NC(=O)[C@H](Cc1c[nH]cn1)NC(=O)[C@H](CCCCN)NC(=O)[C@H](CCC(=O)O)NC(=O)[C@H](Cc1c[nH]cn1)NC(=O)[C@H](Cc1ccccc1)NC(=O)[C@H](CCCCN)NC(=O)[C@@H](N)CCCNC(=N)N)C(=O)O [RR14] (H-RKFHEKHHSHRGYR-OH)
[1]; U159, 24 h
  MIC: 384 µM

## CC(C)C[C@H](NC(=O)[C@H](Cc1ccccc1)NC(=O)[C@H](CCCCN)NC(=O)[C@H](CCC(=O)O)NC(=O)[C@H](CCC(=O)O)NC(=O)[C@H](CO)NC(=O)[C@H](CO)NC(=O)[C@@H](N)CC(=O)O)C(=O)N[C@@H](CCCNC(=N)N)C(=O)O [DR9/2] (H-DSSEEKFLR-OH)
[1]; U159, 24 h
  MIC: > 512 µM

## CC(C)C[C@H](NC(=O)[C@H](Cc1ccc(O)cc1)NC(=O)[C@H](CC(N)=O)NC(=O)[C@H](CO)NC(=O)[C@H](CCCNC(=N)N)NC(=O)[C@H](Cc1ccc(O)cc1)NC(=O)CNC(=O)[C@H](CCCNC(=N)N)NC(=O)[C@H](Cc1c[nH]cn1)NC(=O)[C@H](CO)NC(=O)[C@H](Cc1c[nH]cn1)NC(=O)[C@H](Cc1c[nH]cn1)NC(=O)[C@H](CCCCN)NC(=O)[C@H](CCC(=O)O)NC(=O)[C@H](Cc1c[nH]cn1)NC(=O)[C@H](Cc1ccccc1)NC(=O)[C@H](CCCCN)NC(=O)[C@H](CCCNC(=N)N)NC(=O)[C@H](CCCCN)NC(=O)[C@H](Cc1ccc(O)cc1)NC(=O)CNC(=O)[C@H](Cc1c[nH]cn1)NC(=O)[C@H](Cc1c[nH]cn1)NC(=O)[C@H](CCCNC(=N)N)NC(=O)[C@H](CCCCN)NC(=O)[C@H](C)NC(=O)[C@H](Cc1c[nH]cn1)NC(=O)[C@H](CO)NC(=O)[C@@H](N)CC(=O)O)C(=O)N[C@@H](Cc1ccc(O)cc1)C(=O)N[C@@H](CC(=O)O)C(=O)N[C@@H](CC(N)=O)C(=O)O [Histatin3]
[1]; [6]
  MIC: 128 µM
[2]
  Biovolume / biomass of biofilm (crystal violet): considerably reduced biomass build-up
  Biofilm structure (brightfield, crystal violet-stained): more dispersed biofilms
[5]
  Dead cells / antimicrobial efficacy in biofilm (Syto-9/propidium iodide): Many dead cells

## Histatin1: native salivary protein, synthesized (DSHEKRHHGYRRKFHEKHHSHREFPFYGDYGSNYLYDN; ends and bridges not checked; UniProt P15515 20-57, looked up)
[1]; [6]
  MIC: > 512 µM
[2]
  Biovolume / biomass of biofilm (crystal violet): highest biovolume
[5]
  Dead cells / antimicrobial efficacy in biofilm (Syto-9/propidium iodide): Many dead cells
